Results taken from patent publication US20240262819A1, “NOVEL COMPOUNDS HAVING INHIBITORY ACTIVITY AGAINST GLUCOSYLCERAMIDE SYNTHASE OR PHARMACEUTICALLY ACCEPTABLE SALT THEREOF, PROCESSES FOR PREPARING THE SAME, AND PHARMACEUTICAL COMPOSITIONS COMPRISING THE SAME” (YUHAN CORPORATION, priority 2021, published 2024).

Key:
[1] = target: glucosylceramide synthase (GCS) (Homo sapiens (Human), UniProt Q16739); assay: Evaluation of inhibitory activities against GCS (A549 cell lysate, NBD C6-ceramide, HPLC); type: biochemical
Sequence of glucosylceramide synthase (GCS) (Q16739 whole entry): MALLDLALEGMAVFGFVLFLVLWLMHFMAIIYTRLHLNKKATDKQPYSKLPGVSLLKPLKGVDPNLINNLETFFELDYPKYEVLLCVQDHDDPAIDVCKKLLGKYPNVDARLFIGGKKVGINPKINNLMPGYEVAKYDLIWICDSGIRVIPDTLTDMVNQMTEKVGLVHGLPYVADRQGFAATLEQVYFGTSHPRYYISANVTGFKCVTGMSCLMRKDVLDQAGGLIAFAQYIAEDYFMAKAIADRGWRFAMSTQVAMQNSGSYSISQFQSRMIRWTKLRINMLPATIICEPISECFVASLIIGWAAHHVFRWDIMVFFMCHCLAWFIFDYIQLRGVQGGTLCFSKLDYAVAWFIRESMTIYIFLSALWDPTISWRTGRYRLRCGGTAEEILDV
Protocol: The inhibitory activities of the compounds of the present invention against GCS were evaluated, as follows, according to the method described in the known literature (Hayashi Y et al., A sensitive and reproducible assay to measure the activity of glucosylceramide synthase and lactosylceramide synthase using HPLC and fluorescent substrates, Analytical Biochemistry 345 (2005) 181-186). Ibiglustat, known as a GCS inhibitor, was used as a control.
After the cells attached to the culture dish were washed with phosphate buffered saline (PBS), the cells were scraped off with a cell scraper and then centrifuged (4000 rpm, 3 min, 4 °C) to collect the cells in a 50 ml tube. The cell pellets were suspended in a lysis buffer (50 mM HEPES, pH 7.3, containing 1× the protease/phosphatase inhibitor cocktail), lysed by sonication, and then the lysate was centrifuged (13000 rpm, 10 min, 4° C.). The obtained supernatant was used for the quantitative analysis of proteins. The amount of proteins was measured using the BCA protein assay kit, using bovine serum albumin as a standard.
Enzymatic reactions were initiated by sequentially adding the following reaction materials to a 96 deep-well plate. Thereafter, the enzymatic reactions were performed at 37° C. for 90 minutes.
The enzymatic reactions were stopped by adding 100 μl of chloroform/methanol (2:1, v/v). […] The lower layer (50 μl) was transferred to a new 96 deep-well plate and dried with a reduced concentrator.
Lipids were dissolved in 100 μl of isopropyl alcohol/n-hexane/H2O (55:44:1, v/v/v) and then transferred to a glass vial for HPLC (Agilent, 8004-HP-H/i3u). The sample (100 μl) was automatically loaded onto a normal-phase column (Intersil SIL 150A-5, 4.6×250 mm, GL Sciences, Japan) and then eluted at a flow rate of 2.0 ml/min with isopropyl alcohol/n-hexane/H2O (55:44:1, v/v/v). The fluorescence thereof was measured with a fluorescence detector (Agilent, 1260 FLD Spectra), using 470 nm and 530 nm as excitation and emission wavelengths, respectively.
Data analysis was performed by the following equations.
% Area (Sample)=Area (GlcCer)/[Area (Cer)+Area (GlcCer)]×100%
GCS activity=[Area (Sample)−Area (ibiglustat)]/[Area (DMSO)−Area (ibiglustat)]×100
The obtained % GCS activity data was analyzed with the software GraphPad Prism (Ver 5.01) to calculate the IC50 values.

[2] = tested on: GM1 production in Jurkat cells; assay: cells; type: cell-based; settings: Homo sapiens, Jurkat, 72 h

| SMILES | IC50 [1] | IC50 [2] |
| --- | --- | --- |
| CCCCOc1ccc(-c2cc3c(cc2F)[C@H](NC(=O)O[C@@H]2CN4CCC2CC4)C(C)(C)C3)cc1Cl [Example 88, (S)-quinuclidin-3-yl((R)-5-(4-butoxy-3-chlorophenyl)-6-fluoro-2,2-dimethyl-2,3-dihydro-1H-inden-1-yl)carbamate] | 0.779 nM | 21.1 nM |
| CCCOc1ccc(-c2cc3c(cc2F)[C@H](NC(=O)O[C@@H]2CN4CCC2CC4)C(C)(C)C3)cc1F [Example 91, (S)-quinuclidin-3-yl((R)-6-fluoro-5-(3-fluoro-4-propoxyphenyl)-2,2-dimethyl-2,3-dihydro-1H-inden-1-yl)carbamate] | 0.329 nM | 10.7 nM |
| CCc1ccc(-c2cc3c(cc2F)[C@H](NC(=O)O[C@@H]2CN4CCC2CC4)C(C)(C)C3)cc1F [Example 93, (S)-quinuclidin-3-yl((R)-5-(4-ethyl-3-fluorophenyl)-6-fluoro-2,2-dimethyl-2,3-dihydro-1H-inden-1-yl)carbamate] | 0.37 nM | 5.6 nM |
| Cc1cc(-c2cc3c(cc2F)[C@H](NC(=O)O[C@@H]2CN4CCC2CC4)C(C)(C)C3)ccc1OC(C)C [Example 94, (S)-quinuclidin-3-yl((R)-6-fluoro-5-(4-isopropoxy-3-methylphenyl)-2,2-dimethyl-2,3-dihydro-1H-inden-1-yl)carbamate] | 0.52 nM | 12.1 nM |
| COc1cc(-c2cc3c(cc2F)[C@H](NC(=O)O[C@@H]2CN4CCC2CC4)C(C)(C)C3)ccc1OC(C)C [Example 95, (S)-quinuclidin-3-yl((R)-6-fluoro-5-(4-isopropoxy-3-methoxyphenyl)-2,2-dimethyl-2,3-dihydro-1H-inden-1-yl)carbamate] | 1.14 nM | 18.2 nM |
| CC(C)Oc1c(F)cc(-c2cc3c(cc2F)[C@H](NC(=O)O[C@@H]2CN4CCC2CC4)C(C)(C)C3)cc1F [Example 97, (S)-quinuclidin-3-yl((R)-5-(3,5-difluoro-4-isopropoxyphenyl)-6-fluoro-2,2-dimethyl-2,3-dihydro-1H-inden-1-yl)carbamate] | 1.06 nM | 13 nM |
| CC1(C)Cc2cc(-c3ccc(OCC4CC4)cc3Cl)c(F)cc2[C@@H]1NC(=O)O[C@@H]1CN2CCC1CC2 [Example 98, (S)-quinuclidin-3-yl((R)-5-(2-chloro-4-(cyclopropylmethoxy)phenyl)-6-fluoro-2,2-dimethyl-2,3-dihydro-1H-inden-1-yl)carbamate] | 0.06 nM | 0.2 nM |
| CC1(C)Cc2cc(-c3ccc(OCC4CC4)c(Cl)c3)c(F)cc2[C@@H]1NC(=O)O[C@@H]1CN2CCC1CC2 [Example 99, (S)-quinuclidin-3-yl((R)-5-(3-chloro-4-(cyclopropylmethoxy)phenyl)-6-fluoro-2,2-dimethyl-2,3-dihydro-1H-inden-1-yl)carbamate] | 0.67 nM | 8.84 nM |
| CC(C)Oc1c(Cl)cc(-c2cc3c(cc2F)[C@H](NC(=O)O[C@@H]2CN4CCC2CC4)C(C)(C)C3)cc1Cl [Example 100, (S)-quinuclidin-3-yl((R)-5-(3,5-dichloro-4-isopropoxyphenyl)-6-fluoro-2,2-dimethyl-2,3-dihydro-1H-inden-1-yl)carbamate] | 4.58 nM | 16.2 nM |
| CC(C)(C)Oc1ccc(-c2cc3c(cc2F)[C@H](NC(=O)O[C@@H]2CN4CCC2CC4)C(C)(C)C3)cc1 [Example 101, (S)-quinuclidin-3-yl((R)-5-(4-(tert-butoxy)phenyl)-6-fluoro-2,2-dimethyl-2,3-dihydro-1H-inden-1-yl)carbamate] | 0.38 nM | 4.67 nM |
| CC(C)(C)Oc1ccc(-c2cc3c(cc2F)[C@H](NC(=O)O[C@@H]2CN4CCC2CC4)C(C)(C)C3)c(Cl)c1 [Example 102, (S)-quinuclidin-3-yl((R)-5-(4-(tert-butoxy)-2-chlorophenyl)-6-fluoro-2,2-dimethyl-2,3-dihydro-1H-inden-1-yl)carbamate] | 0.19 nM | 1.6 nM |
| CCOc1ccc(-c2cc3c(cc2F)[C@H](NC(=O)O[C@@H]2CN4CCC2CC4)C(C)(C)C3)cc1C [Example 105, (S)-quinuclidin-3-yl((R)-5-(4-ethoxy-3-methylphenyl)-6-fluoro-2,2-dimethyl-2,3-dihydro-1H-inden-1-yl)carbamate] | 0.72 nM | 8.2 nM |
| CCCOc1ccc(-c2cc3c(cc2F)[C@H](NC(=O)O[C@@H]2CN4CCC2CC4)C(C)(C)C3)cc1C [Example 106, (S)-quinuclidin-3-yl((R)-6-fluoro-2,2-dimethyl-5-(3-methyl-4-propoxyphenyl)-2,3-dihydro-1H-inden-1-yl)carbamate] | 0.61 nM | 2.3 nM |
| Cc1cc(-c2cc3c(cc2F)[C@H](NC(=O)O[C@@H]2CN4CCC2CC4)C(C)(C)C3)ccc1OC(F)F [Example 107, (S)-quinuclidin-3-yl((R)-5-(4-(difluoromethoxy)-3-methylphenyl)-6-fluoro-2,2-dimethyl-2,3-dihydro-1H-inden-1-yl)carbamate] | 0.93 nM | 16 nM |
| CC(C)Oc1cc(F)cc(-c2cc3c(cc2F)[C@H](NC(=O)O[C@@H]2CN4CCC2CC4)C(C)(C)C3)c1 [Example 108, (S)-quinuclidin-3-yl((R)-6-fluoro-5-(3-fluoro-5-isopropoxyphenyl)-2,2-dimethyl-2,3-dihydro-1H-inden-1-yl)carbamate] | 1.06 nM | 31.6 nM |
| CC(C)COc1cc(F)cc(-c2cc3c(cc2F)[C@H](NC(=O)O[C@@H]2CN4CCC2CC4)C(C)(C)C3)c1 [Example 109, (S)-quinuclidin-3-yl((R)-6-fluoro-5-(3-fluoro-5-isobutoxyphenyl)-2,2-dimethyl-2,3-dihydro-1H-inden-1-yl)carbamate] | 0.69 nM | 11.5 nM |
| CC1(C)Cc2cc(-c3cc(F)cc(OCC(F)(F)F)c3)c(F)cc2[C@@H]1NC(=O)O[C@@H]1CN2CCC1CC2 [Example 110, (S)-quinuclidin-3-yl((R)-6-fluoro-5-(3-fluoro-5-(2,2,2-trifluoroethoxy)phenyl)-2,2-dimethyl-2,3-dihydro-1H-inden-1-yl)carbamate] | 1.05 nM | 28 nM |
| CC(C)Oc1cc(-c2cc3c(cc2F)[C@H](NC(=O)O[C@@H]2CN4CCC2CC4)C(C)(C)C3)ccc1Cl [Example 111, (S)-quinuclidin-3-yl((R)-5-(4-chloro-3-isopropoxyphenyl)-6-fluoro-2,2-dimethyl-2,3-dihydro-1H-inden-1-yl)carbamate] | 7.13 nM | 76.2 nM |
| CC(C)COc1cc(Cl)cc(-c2cc3c(cc2F)[C@H](NC(=O)O[C@@H]2CN4CCC2CC4)C(C)(C)C3)c1 [Example 112, (S)-quinuclidin-3-yl((R)-5-(3-chloro-5-isobutoxyphenyl)-6-fluoro-2,2-dimethyl-2,3-dihydro-1H-inden-1-yl)carbamate] | 1.03 nM | 10.6 nM |
| CC(C)Oc1cc(Cl)cc(-c2cc3c(cc2F)[C@H](NC(=O)O[C@@H]2CN4CCC2CC4)C(C)(C)C3)c1 [Example 113, (S)-quinuclidin-3-yl((R)-5-(3-chloro-5-isopropoxyphenyl)-6-fluoro-2,2-dimethyl-2,3-dihydro-1H-inden-1-yl)carbamate] | 0.62 nM | 11.5 nM |
| CC1(C)Cc2cc(-c3ccc(OCC(F)(F)F)cc3Cl)c(F)cc2[C@@H]1NC(=O)O[C@@H]1CN2CCC1CC2 [Example 114, (S)-quinuclidin-3-yl((R)-5-(2-chloro-4-(2,2,2-trifluoroethoxy)phenyl)-6-fluoro-2,2-dimethyl-2,3-dihydro-1H-inden-1-yl)carbamate] | 0.2 nM | 1.7 nM |
| CCc1ccc(-c2cc3c(cc2C)[C@H](NC(=O)O[C@@H]2CN4CCC2CC4)C(C)(C)C3)cc1 [Example 115, (S)-quinuclidin-3-yl((R)-5-(4-ethylphenyl)-2,2,6-trimethyl-2,3-dihydro-1H-inden-1-yl)carbamate] | 0.43 nM | 5.09 nM |
| CCCc1ccc(-c2cc3c(cc2C)[C@H](NC(=O)O[C@@H]2CN4CCC2CC4)C(C)(C)C3)cc1 [Example 116, (S)-quinuclidin-3-yl((R)-2,2,6-trimethyl-5-(4-propylphenyl)-2,3-dihydro-1H-inden-1-yl)carbamate] | 0.31 nM | 3.82 nM |
| Cc1cc2c(cc1-c1ccc(C(C)C)cc1)CC(C)(C)[C@H]2NC(=O)O[C@@H]1CN2CCC1CC2 [Example 117, (S)-quinuclidin-3-yl((R)-5-(4-isopropylphenyl)-2,2,6-trimethyl-2,3-dihydro-1H-inden-1-yl)carbamate] | 0.47 nM | 4.42 nM |
